Experimental data taken from patent publication US8324390B2, “Tetrazole-substituted anthranilamides as pesticides” (Bayer CropScience AG, priority 2008, dated 2012).
Like-named read-outs stand apart in the source and are kept apart here.

Columns and labels:
[1] = system: caterpillars of the armyworm (Spodoptera frugiperda); experiment: Spodoptera frugiperda test (SPODFR spray treatment); assay type: in vivo; settings: Spodoptera frugiperda, foliar, read-out: effect in % (caterpillars killed)
Excerpt: Solvent: 78.0 parts by weight of acetone

[2] = log P determination by HPLC (EEC Directive 79/831 Annex V.A8); assay type: physicochemical
Experimental: The measurements were carried out using an Agilent 1100 LC system with a 50*4.6 Zorbax Eclipse C18 1.8 μm column (oven temperature 55° C., flow rate 2.0 ml/min).
The following mobile phases were used:
Mobile phase A: acetonitrile+1000 μl of formic acid/l
Mobile phase B: Millipore water+900 μl of formic acid/l

[3] = system: larvae of the mustard beetle (Phaedon cochleariae); experiment: Phaedon test (PHAECO spray treatment); settings: Phaedon cochleariae, in Brassica rapa, foliar, read-out: effect in % (beetle larvae killed)
[4] = by HPLC according to EEC Directive 79/831 Annex V.A8, read-out: log P
[5] = application rate 100 g/ha, maize leaf discs
[6] = reversed-phase HPLC, Zorbax Eclipse C18 column, determined by HPLC according to EEC Directive 79/831 Annex V.A8, read-out: log P
[7] = reversed-phase HPLC, Zorbax Eclipse C18 column, by HPLC according to EEC Directive 79/831 Annex V.A8, read-out: log P

chromatographic logP [2, 6] | chromatographic logP [2, 7] | SMILES | pest or weed control at 100 g/ha ([1]; in Zea mays) [%] | chromatographic logP [2, 4] | pest or weed control at 100 g/ha [3] [%] | chromatographic logP ([2]; log P) | pest or weed control at 100 g/ha [1, 5] [%]
 |  | CNC(=O)c1cc(I)cc(C)c1NC(=O)c1cc(Cn2nnc(C(F)(F)C(F)(F)C(F)(F)F)n2)nn1-c1ncccc1Cl [Example 112] | ≥ 80 | 3.99 | ≥ 80 |  | 
 |  | Cc1cc(C#N)cc(C(=O)NC2CCCCC2)c1NC(=O)c1cc(Cn2nnc(C(F)(F)F)n2)nn1-c1ncccc1Cl [Example 400] | ≥ 80 |  | ≥ 80 | 3.63 | 
3.73 |  | Cc1cc(I)cc(C(=O)NC(C)(C)C)c1NC(=O)c1cc(Cn2nnnc2C(F)(F)F)nn1-c1ncccc1Br [Example 496] |  |  | ≥ 80 |  | ≥ 80
 | 3.92 | Cc1cc(C#N)cc(C(=O)NC(C)(C)C)c1NC(=O)c1cc(Cn2nnc(C(F)(F)F)n2)nn1-c1ccccc1Cl [Example 343] |  |  | ≥ 80 |  | ≥ 80
 | 3.01 | CNC(=O)c1cc(Cl)cc(C)c1NC(=O)c1cc(Cn2nnc(C(F)(F)F)n2)nn1-c1ncccc1Br [Example 331] |  |  | ≥ 80 |  | ≥ 80
4.16 |  | Cc1cc(C#N)cc(C(=O)NC(C)(C)C)c1NC(=O)c1cc(Cn2nnc(C(F)(F)F)n2)nn1-c1ccc(Cl)cc1 [Example 527] |  |  | ≥ 80 |  | ≥ 80
 |  | Cc1cc(Cl)cc(C(=O)NC2CCC2)c1NC(=O)c1cc(Cn2nnc(C(F)F)n2)nn1-c1ncccc1Cl [Example 260] | ≥ 80 |  | ≥ 80 | 3.09 | 
 |  | Cc1cc(Cl)cc(C(=O)NC(C)C2CC2)c1NC(=O)c1cc(Cn2nnc(C(F)F)n2)nn1-c1ncccc1Cl (stereo not drawn) [Example 256] | ≥ 80 |  | ≥ 80 | 3.24 | 
 |  | CNC(=O)c1cc(Br)cc(C)c1NC(=O)c1cc(Cn2nnc(C(F)(F)C(F)(F)F)n2)nn1-c1ncccc1Cl [Example 143] | ≥ 80 |  | ≥ 80 | 3.5 | 
 |  | Cc1cc(C#N)cc(C(=O)NC2CC2)c1NC(=O)c1cc(Cn2nnnc2C(F)F)nn1-c1ncccc1Cl [Example 468] | ≥ 80 |  | ≥ 80 | 2.12 | 
 |  | CNC(=O)c1cc(Cl)cc(Cl)c1NC(=O)c1cc(Cn2nnc(C(F)F)n2)nn1-c1ncccc1Cl [Example 282] | ≥ 80 |  | ≥ 80 | 2.48 | 
4.73 |  | Cc1cc(Cl)cc(C(=O)NC(C)(C)C)c1NC(=O)c1cc(Cn2nnc(C(F)(F)C(F)(F)F)n2)nn1-c1ccccc1Cl [Example 535] |  |  | ≥ 80 |  | ≥ 80
 |  | NC(=O)c1cc(Cl)cc(Cl)c1NC(=O)c1cc(Cn2nnc(C(F)(F)C(F)(F)F)n2)nn1-c1ncccc1Cl [Example 155] | ≥ 80 |  | ≥ 80 | 3.13 | 
 |  | N#CCNC(=O)c1cc(Cl)cc(Cl)c1NC(=O)c1cc(Cn2nnc(C(F)(C(F)(F)F)C(F)(F)F)n2)nn1-c1ncccc1Cl [Example 393] | ≥ 80 |  | ≥ 80 | 3.59 | 
 |  | CCNC(=O)c1cc(Cl)cc(Cl)c1NC(=O)c1cc(Cn2nnc(C(F)(C(F)(F)F)C(F)(F)F)n2)nn1-c1ncccc1Cl [Example 388] | ≥ 80 |  | ≥ 80 | 3.89 | 
 |  | Cc1cc(Cl)cc(C(=O)NC(C)C2CC2)c1NC(=O)c1cc(Cn2nnnc2C(F)(F)C(F)(F)F)nn1-c1ncccc1Cl (stereo not drawn) [Example 199] | ≥ 80 |  | ≥ 80 | 3.88 | 
 |  | Cc1cc(I)cc(C(=O)NC(C)C)c1NC(=O)c1cc(Cn2nnc(C(F)(F)C(F)(F)C(F)(F)F)n2)nn1-c1ncccc1Cl [Example 109] | ≥ 80 | 4.48 | ≥ 80 |  | 
 | 3.1 | Cc1cc(C#N)cc(C(=O)NC(C)C)c1NC(=O)c1cc(Cn2nnc(C(F)(F)F)n2)nn1-c1ncccc1Br [Example 323] |  |  | ≥ 80 |  | ≥ 80
 |  | Cc1cc(C#N)cc(C(=O)NCC(F)F)c1NC(=O)c1cc(Cn2nnnc2C(F)(F)F)nn1-c1ncccc1Cl [Example 207] | ≥ 80 |  | ≥ 80 | 2.57 | 
 |  | Cc1cc(Cl)cc(C(=O)NCC(C)C)c1NC(=O)c1cc(Cn2nnc(C(F)(F)F)n2)nn1-c1ncccc1Cl [Example 37] | ≥ 80 |  | ≥ 80 | 3.78 | 

chromatographic logP [2, 6] | chromatographic logP [2, 7] | SMILES | pest or weed control at 100 g/ha ([1]; in Zea mays) [%] | chromatographic logP [2, 4] | pest or weed control at 100 g/ha [3] [%] | chromatographic logP ([2]; log P) | pest or weed control at 100 g/ha [1, 5] [%]
3.52 |  | CNC(=O)c1cc(Cl)cc(C)c1NC(=O)c1cc(Cn2nnnc2C(F)(F)F)nn1-c1cc(Cl)ccc1Cl [Example 473] |  |  | ≥ 80 |  | ≥ 80
4.14 |  | Cc1cc(Cl)cc(C(=O)NC(C)(C)C)c1NC(=O)c1cc(Cn2nnc(C(F)(F)F)n2)nn1-c1ccccc1 [Example 403] |  |  | ≥ 80 |  | ≥ 80
 |  | Cc1cc(C#N)cc(C(=O)NC2CCCC2)c1NC(=O)c1cc(Cn2nnc(C(F)(F)F)n2)nn1-c1ncccc1Cl [Example 399] | ≥ 80 |  | ≥ 80 | 3.37 | 
 | 4.26 | Cc1cc(Cl)cc(C(=O)NCC2CC2)c1NC(=O)c1cc(Cn2nnc(C(F)(C(F)(F)F)C(F)(F)F)n2)nn1-c1ncccc1Cl [Example 359] |  |  | ≥ 80 |  | ≥ 80
 |  | Cc1cc(Br)cc(C(=O)NC(C)C2CC2)c1NC(=O)c1cc(Cn2nnc(C(F)F)n2)nn1-c1ncccc1Cl (stereo not drawn) [Example 297] | ≥ 80 |  | ≥ 80 | 3.36 | 
 | 3.79 | Cc1cc(C#N)cc(C(=O)NC(C)C)c1NC(=O)c1cc(Cn2nnc(C(F)(C(F)(F)F)C(F)(F)F)n2)nn1-c1ncccc1Cl [Example 370] |  |  | ≥ 80 |  | ≥ 80
 |  | CC(C)NC(=O)c1cc(Cl)cc(Cl)c1NC(=O)c1cc(Cn2nnc(C(F)(F)F)n2)nn1-c1ncccc1Cl [Example 61] | ≥ 80 |  | ≥ 80 | 3.41 | 
 |  | Cc1cc(F)cc(C(=O)NC(C)C)c1NC(=O)c1cc(Cn2nnc(C(F)(F)C(F)(F)F)n2)nn1-c1ncccc1Cl [Example 149] | ≥ 80 |  | ≥ 80 | 3.59 | 
 | 3.64 | Cc1cc(Cl)cc(C(=O)NC(C)C)c1NC(=O)c1cc(Cn2nnc(C(F)(F)F)n2)nn1-c1ncccc1C(F)(F)F [Example 227] |  |  | ≥ 80 |  | ≥ 80
 |  | Cc1cc(C#N)cc(C(=O)NC(C)C2CC2)c1NC(=O)c1cc(Cn2nnnc2C(F)(F)F)nn1-c1ncccc1Cl (stereo not drawn) [Example 185] | ≥ 80 |  | ≥ 80 | 3 | 
 | 3.16 | CNC(=O)c1cc(Cl)cc(C)c1NC(=O)c1cc(Cn2nnc(C(F)(F)F)n2)nn1-c1ncccc1C(F)(F)F [Example 226] |  |  | ≥ 80 |  | ≥ 80
 |  | CSC[C@H](C)NC(=O)c1cc(C#N)cc(C)c1NC(=O)c1cc(Cn2nnc(C(F)(F)C(F)(F)F)n2)nn1-c1ncccc1Cl [Example 216] | ≥ 80 |  | ≥ 80 | 3.68 | 
 | 3.89 | O=C(NCC(F)F)c1cc(Cl)cc(Cl)c1NC(=O)c1cc(Cn2nnc(C(F)(C(F)(F)F)C(F)(F)F)n2)nn1-c1ncccc1Cl [Example 396] |  |  | ≥ 80 |  | ≥ 80
 |  | Cc1cc(C)c(NC(=O)c2cc(Cn3nnc(C(F)(F)F)n3)nn2-c2ncccc2Cl)c(C(=O)NC2CCC2)c1 [Example 84] | ≥ 80 |  | ≥ 80 | 3.42 | 
 | 4.42 | CC(NC(=O)c1cc(Cl)cc(Cl)c1NC(=O)c1cc(Cn2nnc(C(F)(C(F)(F)F)C(F)(F)F)n2)nn1-c1ncccc1Cl)C1CC1 (stereo not drawn) [Example 387] |  |  | ≥ 80 |  | ≥ 80
2.81 |  | CNC(=O)c1cc(C#N)cc(C)c1NC(=O)c1cc(Cn2nnc(C(F)(F)F)n2)nn1-c1ccccc1 [Example 431] |  |  | ≥ 80 |  | ≥ 80
 | 3.29 | Cc1cc(C#N)cc(C(=O)NCC#N)c1NC(=O)c1cc(Cn2nnc(C(F)(C(F)(F)F)C(F)(F)F)n2)nn1-c1ncccc1Cl [Example 374] |  |  | ≥ 80 |  | ≥ 80
 |  | Cc1cc(C#N)cc(C(=O)NC(C)(C)C)c1NC(=O)c1cc(Cn2nnc(C(F)F)n2)nn1-c1ncccc1Cl [Example 267] | ≥ 80 |  | ≥ 80 | 2.88 | 
 |  | O=C(NCC1CC1)c1cc(Cl)cc(Cl)c1NC(=O)c1cc(Cn2nnc(C(F)(F)C(F)(F)F)n2)nn1-c1ncccc1Cl [Example 156] | ≥ 80 |  | ≥ 80 | 3.88 | 
